# Assay results published in patent publication US20100168102A9, “Amide Derivatives as Kinase Inhibitors” (Devgen NV, priority 2005, published 2010).
# Like-named read-outs stand apart in the source and are kept apart here.
# How the values were obtained:
# PKC epsilon = biological target: T1, PKC epsilon (Homo sapiens, UniProt Q02156); experiment: Biochemical assay for PKC epsilon (fluorescence polarization, Protein Kinase C Assay Kit, Red); details: read-out: IC50 μM PKCε
# T1 construct: purchased Invitrogen P2282
# T1 sequence (Q02156 1-737): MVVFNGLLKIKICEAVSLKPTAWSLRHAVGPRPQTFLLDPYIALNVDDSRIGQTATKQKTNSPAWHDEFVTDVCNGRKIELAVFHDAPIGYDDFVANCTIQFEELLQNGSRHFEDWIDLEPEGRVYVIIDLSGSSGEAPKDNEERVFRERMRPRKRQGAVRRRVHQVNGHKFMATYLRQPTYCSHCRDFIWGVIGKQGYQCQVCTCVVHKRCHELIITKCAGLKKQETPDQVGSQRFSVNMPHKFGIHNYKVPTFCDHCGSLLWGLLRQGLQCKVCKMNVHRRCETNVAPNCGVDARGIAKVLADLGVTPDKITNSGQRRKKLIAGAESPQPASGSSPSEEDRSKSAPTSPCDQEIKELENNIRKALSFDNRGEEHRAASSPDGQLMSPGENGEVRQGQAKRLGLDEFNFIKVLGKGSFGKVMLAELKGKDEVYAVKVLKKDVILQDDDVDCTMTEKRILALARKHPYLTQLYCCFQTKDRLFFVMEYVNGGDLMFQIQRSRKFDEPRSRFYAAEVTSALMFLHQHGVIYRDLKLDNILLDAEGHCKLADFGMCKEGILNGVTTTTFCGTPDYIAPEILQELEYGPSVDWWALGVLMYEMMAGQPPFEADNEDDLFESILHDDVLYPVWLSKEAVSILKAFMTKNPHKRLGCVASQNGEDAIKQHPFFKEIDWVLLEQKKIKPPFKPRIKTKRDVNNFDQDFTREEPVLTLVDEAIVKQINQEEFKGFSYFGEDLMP
# Description: The compounds were tested for inhibition of PKC epsilon.
# The inhibition assays were performed with a fluorescence polarization (FP) assay using the commercially available Protein Kinase C Assay Kit, Red, from Invitrogen (Product ID. No. P2941), essentially in accordance with the protocol supplied by the manufacturer. […] The isozyme PKC epsilon was also obtained from Invitrogen (Product ID No. P2282).
# Staurosporine was used as a positive control (2 μM).
# To perform the assay, 2 μl of a solution of the compound to be tested in DMSO (at each concentration) was added to 6 μl of a solution of the enzyme in 10 mM HEPES, 5 mM dithiotreitol, 0.1% Triton X-100, pH 7.4. The final concentration of the enzymes was 10 ng/ml.
# After incubating for 30 minutes at room temperature, 4 μl of a mixture of ATP and the protein substrate in 60 mM HEPES (pH7.4), 15 mM MgCl2, 0.3 mM CaCl2, 0.06% NP40 was added.
# After incubating for 80 minutes at room temperature, 3 μl of a mix solution of 500 mM EDTA (stop solution) and the Rhodamine-based PKC Red Tracer (from the Protein Kinase C Assay Kit) in BGG/phosphate buffer (pH7.4) with 0.02% NaN3 and 0.1% Triton X-100 was added and 5 μl of a the Anti-Phosphoserine antibody (also from the Protein Kinase C Assay Kit) in BGG/phosphate buffer (pH7.4) with 0.02% NaN3.
# The results were fitted to a curve using the XL-Fit algorithm and […] were calculated for each fitted curve, again using the XL-Fit algorithm.
# human ROCKα/ROCKII mix = biological target: T2, human ROCKα/ROCKII mix (Homo sapiens, UniProt O75116); experiment: Biochemical assay for ROCK (fluorescence polarization, ROCK IMAP Kit)
# T2 construct: purchased Upstate Biotechnology 14-451
# T2 sequence (O75116 11-552 limits assumed): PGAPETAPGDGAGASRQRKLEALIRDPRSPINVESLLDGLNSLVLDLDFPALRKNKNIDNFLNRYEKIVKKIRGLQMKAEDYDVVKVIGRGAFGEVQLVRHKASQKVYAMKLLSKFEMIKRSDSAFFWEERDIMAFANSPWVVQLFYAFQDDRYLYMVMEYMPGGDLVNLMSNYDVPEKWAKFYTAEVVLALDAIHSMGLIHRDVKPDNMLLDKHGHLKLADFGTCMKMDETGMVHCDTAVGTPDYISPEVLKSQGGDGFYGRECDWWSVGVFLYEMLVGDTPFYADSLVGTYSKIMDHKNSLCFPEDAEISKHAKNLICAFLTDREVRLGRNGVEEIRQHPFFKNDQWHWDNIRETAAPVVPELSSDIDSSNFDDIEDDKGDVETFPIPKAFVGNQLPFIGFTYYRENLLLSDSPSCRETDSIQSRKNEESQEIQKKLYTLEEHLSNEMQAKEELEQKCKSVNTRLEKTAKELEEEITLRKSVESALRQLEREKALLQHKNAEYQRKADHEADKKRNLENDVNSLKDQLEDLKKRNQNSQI
# Description: The compounds were tested for inhibition of human ROCKα/ROCKII mix.
# The inhibition assays were performed with a fluorescence polarization (FP) assay using the commercially available ROCK IMAP Kit from Molecular Devices (Product ID. No. R8093), essentially in accordance with the protocol supplied by the manufacturer. […] The enzyme mix ROCKα/ROCKII was obtained from Upstate Biotechnology (Product ID No 14-451).
# In summary, the compound was screened in the wells of a 384 well plate for enzymatic inhibition with concentrations varying from 100 μM to 0.3 nM using a stepwise 3 (or 2)-fold dilution.
# To perform the assay, 1 μl of a solution of the compound to be tested in DMSO (at each concentration) was added to 2 μl of a solution of the enzyme in 10 mM Tris-HCl , 10 mM MgCl2, 0.1% BSA, 0.05% NaN3, pH 7.2. The final concentration of the enzyme was 2.6 nM.
# After incubating for 30 minutes at room temperature, 2 μl of a mixture of ATP and the protein substrate in 10 mM Tris-HCl, 10 mM MgCl2, 0.1% BSA, 0.05% NaN3, pH 7.2 was added. The final concentration of the ATP was 10 μM and final concentration of protein substrate was 0.2 μM.
# After incubating for 60 minutes at room temperature, 12 μl of the IMAP Binding Solution (mix of the IMAP Binding Buffer A (1×) and the IMAP Binding Reagent (from the ROCK IMAP kit)) was added.
# The mixture thus obtained (total volume: 17 μl) was incubated for 60 minutes at room temperature, upon which the fluorescence polarization was measured using an automated plate reader (Perkin Elmer, Model Envision 2100-0010 HTS) with FP filters: excitation filter FITC FP 480 and emission filters FITC FP P-pol 535 and FITC FP S-pol 535 (Perkin-Elmer). The results were fitted to a curve using the XL-Fit algorithm and IC50 values were calculated for each fitted curve, again using the XL-Fit algorithm.
# [1] = compounds of Formula XIV, Table 3
# [2] = Table 2, compounds of Formula XIII
substance,measurement,setting,value
4-(1-Amino-2-{[2-(4-bromo- phenyl)-acetyl]-methyl- amino}-ethyl)- N-pyridin-4-yl-benzamide [Compound 457],IC50,PKC epsilon,5 to 50 µM
same,IC50,human ROCKα/ROCKII mix,0.5 to 5 µM
4-(1-Amino-2-{[2-(4-chloro- phenyl)-3-methyl-butyryl]- methyl- amino}-ethyl)- N-pyridin-4-yl-benzamide [Compound 461],IC50,PKC epsilon,5 to 50 µM
same,IC50,human ROCKα/ROCKII mix,0.5 to 5 µM
4-(1-Amino-2-{[2-(4-chloro- phenyl)-acetyl]-methyl- amino}-ethyl)- N-pyridin-4-yl-benzamide [Compound 460],IC50,PKC epsilon,5 to 50 µM
same,IC50,human ROCKα/ROCKII mix,0.5 to 5 µM
4-(1-Amino-2-{[2-(4-fluoro- phenyl)-acetyl]-methyl- amino}-ethyl)- N-pyridin-4-yl-benzamide [Compound 471],IC50,PKC epsilon,5 to 50 µM
same,IC50,human ROCKα/ROCKII mix,0.5 to 5 µM
4-(1-Amino-2-{[2-(5-bromo- pyridin-3-yl)-acetyl]-methyl- amino}-ethyl)- N-pyridin-4-yl-benzamide [Compound 442],IC50,PKC epsilon,5 to 50 µM
same,IC50,human ROCKα/ROCKII mix,0.5 to 5 µM
4-(1-Amino-2-{methyl-[2-(2- phenyl-thiazol-4-yl)-acetyl]- amino}-ethyl)- N-pyridin-4-yl-benzamide [Compound 445],IC50,PKC epsilon,5 to 50 µM
same,IC50,human ROCKα/ROCKII mix,0.5 to 5 µM
4-(1-amino-2- cyclohexylcarbamoyl-ethyl)- N-pyridin-4-yl-benzamide [Compound 172],IC50,PKC epsilon; [1],0.5 to 5 µM
same,IC50,human ROCKα/ROCKII mix; [1],0.05 to 0.5 µM
4-(1-amino-2-benzoylamino-ethyl)- N-pyridin-4-yl-benzamide [Compound 69],IC50,PKC epsilon; [2],0.5 to 5 µM
same,IC50,human ROCKα/ROCKII mix; [2],0.05 to 0.5 µM
"4-[1-Amino-2- (benzo[1,3]dioxol-5-yl- ethylcarbamoyl)-ethyl]-N- pyridin-4-yl-benzamide [Compound 296]",IC50,PKC epsilon; [1],5 to 50 µM
same,IC50,human ROCKα/ROCKII mix; [1],0.05 to 0.5 µM
4-[1-Amino-2-(1-(R)-p-tolyl- propylcarbamoyl)-ethyl]-N- pyridin-4-yl-benzamide [Compound 220],IC50,PKC epsilon; [1],0.5 to 5 µM
same,IC50,human ROCKα/ROCKII mix; [1],0.05 to 0.5 µM
4-[1-Amino-2-(1-(S)-p-tolyl- propylcarbamoyl)-ethyl]-N- pyridin-4-yl-benzamide [Compound 219],IC50,PKC epsilon; [1],0.5 to 5 µM
same,IC50,human ROCKα/ROCKII mix; [1],0.05 to 0.5 µM
"4-[1-Amino-2-(2,4- dimethoxy- benzylcarbamoyl)-ethyl]- N-pyridin-4-yl-benzamide [Compound 241]",IC50,PKC epsilon; [1],0.5 to 5 µM
same,IC50,human ROCKα/ROCKII mix; [1],0.05 to 0.5 µM
4-[1-Amino-2-(2-ethoxy- benzylcarbamoyl)-ethyl]- N-pyridin-4-yl-benzamide [Compound 237],IC50,PKC epsilon; [1],0.5 to 5 µM
same,IC50,human ROCKα/ROCKII mix; [1],0.05 to 0.5 µM
4-[1-Amino-2-(2-methoxy- benzylcarbamoyl)-ethyl]- N-pyridin-4-yl-benzamide [Compound 236],IC50,PKC epsilon; [1],0.5 to 5 µM
same,IC50,human ROCKα/ROCKII mix; [1],0.05 to 0.5 µM
"4-[1-Amino-2-(3,4-dichloro- 6-methyl-benzylcarbamoyl)- ethyl}-N-pyridin-4-yl- benzamide [Compound 254]",IC50,PKC epsilon; [1],0.5 to 5 µM
same,IC50,human ROCKα/ROCKII mix; [1],0.05 to 0.5 µM
4-[1-Amino-2-(4-thiophen-2- yl-benzylcarbamoyl)-ethyl]- N-pyridin-4-yl-benzamide [Compound 235],IC50,PKC epsilon; [1],5 to 50 µM
same,IC50,human ROCKα/ROCKII mix; [1],0.05 to 0.5 µM
4-[1-Amino-2-(benzyl- phenethyl-carbamoyl)-ethyl]- N-pyridin-4-yl-benzamide [Compound 226],IC50,PKC epsilon; [1],0.5 to 5 µM
same,IC50,human ROCKα/ROCKII mix; [1],0.05 to 0.5 µM
4-[1-Amino-2-(methyl- phenylacetyl-amino)-ethyl]- N-pyridin-4-yl-benzamide [Compound 420],IC50,PKC epsilon,5 to 50 µM
same,IC50,human ROCKα/ROCKII mix,0.5 to 5 µM
4-[1-Amino-2-(phenethyl- phenyl-carbamoyl)-ethyl]-N- pyridin-4-yl-benzamide [Compound 286],IC50,PKC epsilon; [1],0.5 to 5 µM
same,IC50,human ROCKα/ROCKII mix; [1],0.05 to 0.5 µM
4-[1-amino-2-(2-morpholin- 4-yl-ethylcarbamoyl)-ethyl]- N-pyridin-4-yl-benzamide [Compound 177],IC50,PKC epsilon; [1],5 to 50 µM
same,IC50,human ROCKα/ROCKII mix; [1],0.05 to 0.5 µM
4-[1-amino-2-(2-pyrazol-1-yl- ethylcarbamoyl)-ethyl]-N- pyridin-4-yl-benzamide [Compound 312],IC50,PKC epsilon; [1],0.5 to 5 µM
same,IC50,human ROCKα/ROCKII mix; [1],0.05 to 0.5 µM
4-[1-amino-2-(4-methyl- cyclohexylcarbamoyl)-ethyl]- N-pyridin-4-yl-benzamide [Compound 173],IC50,PKC epsilon; [1],0.5 to 5 µM
same,IC50,human ROCKα/ROCKII mix; [1],0.05 to 0.5 µM
4-[1-amino-2-(N′-butyl- hydrazinocarbonyl)-ethyl]-N- pyridin-4-yl-benzamide [Compound 324],IC50,PKC epsilon; [1],0.5 to 5 µM
same,IC50,human ROCKα/ROCKII mix; [1],0.05 to 0.5 µM
4-[1-amino-2-(cyclopropyl- methylcarbamoyl)-ethyl]-N- pyridin-4-yl-benzamide [Compound 171],IC50,PKC epsilon; [1],0.5 to 5 µM
same,IC50,human ROCKα/ROCKII mix; [1],0.05 to 0.5 µM
"4-{1-Amino-2- [(benzo[1,3]dioxol-5- ylmethyl)-carbamoyl]-ethyl}- N-pyridin-4-yl-benzamide [Compound 245]",IC50,PKC epsilon; [1],0.5 to 5 µM
same,IC50,human ROCKα/ROCKII mix; [1],0.05 to 0.5 µM
4-{1-Amino-2-[2-(9H-fluoren- 2-yl)-ethylcarbamoyl]-ethyl}- N-pyridin-4-yl-benzamide [Compound 318],IC50,PKC epsilon; [1],5 to 50 µM
same,IC50,human ROCKα/ROCKII mix; [1],0.05 to 0.5 µM
4-{1-Amino-2-[(2-1H-indol-3- yl-acetyl)-methyl- amino]-ethyl}- N-pyridin-4-yl-benzamide [Compound 443],IC50,PKC epsilon,5 to 50 µM
same,IC50,human ROCKα/ROCKII mix,0.5 to 5 µM
"4-{1-Amino-2-[(2- benzo[1,3]dioxol-5-yl- acetyl)-methyl-amino]-ethyl}- N-pyridin-4-yl-benzamide [Compound 432]",IC50,PKC epsilon,5 to 50 µM
same,IC50,human ROCKα/ROCKII mix,0.5 to 5 µM
4-{1-Amino-2-[(2- benzo[b]thiophen-3-yl- acetyl)-methyl- amino]-ethyl}- N-pyridin-4-yl-benzamide [Compound 444],IC50,PKC epsilon,5 to 50 µM
same,IC50,human ROCKα/ROCKII mix,0.5 to 5 µM
4-{1-Amino-2-[(2- cyclopentyl-2-phenyl- acetyl)-methyl- amino]-ethyl}- N-pyridin-4-yl-benzamide [Compound 455],IC50,PKC epsilon,5 to 50 µM
same,IC50,human ROCKα/ROCKII mix,5 to 50 µM
4-{1-Amino-2-[(2-biphenyl-4- yl-acetyl)-methyl- amino]-ethyl}- N-pyridin-4-yl-benzamide [Compound 436],IC50,PKC epsilon,5 to 50 µM
same,IC50,human ROCKα/ROCKII mix,0.5 to 5 µM
4-{1-Amino-2-[(3-methyl- cyclohexanecarbonyl)-amino]-ethyl}- N-pyridin-4-yl-benzamide [Compound 45],IC50,PKC epsilon; [2],0.5 to 5 µM
same,IC50,human ROCKα/ROCKII mix; [2],0.5 to 5 µM
